The test system of data set [1] is broadleaf weeds and grasses typically found in preplant corn fields. As to the kind of experiment: Field test of preplant burndown effectiveness (Example 1). The data set is classed as in vivo. The conditions noted are these: average of ratings 6 and 8 weeks after treatment. As for the experimental part:
The composition of the present invention was tested for percent burndown effectiveness, compared to pretreatment, in fields containing broadleaf weeds and grasses typically found in preplant corn fields, including Texas panicum, fall panicum, signalgrass, goosegrass, barnyardgrass, yellow & green foxtail, pigweed, wild mustard, ryegrass, vetch, volunteer wheat, Florida pusley, smartweed, and cutleaf evening primrose.
The composition of the present invention consisted of about 57% ametryn, 25% atrazine, and 18% paraquat, by weight, and was applied at a rate of about 2 lbs. per acre. On separate fields, for comparison, ametryn alone, paraquat alone, atrazine alone, and ametryn plus gramoxone were applied. The composition of the present invention was formulated by suspending 2 lbs. of the composition of the present invention per 20 gallons of water. Herbicides were rated for burndown effectiveness 6 and 8 weeks after treatment. The two resulting values were averaged.

In a further data set the test system is humans and other mammals. The conditions noted are these: result in words; cited from earlier work.
The subject of a further data set is vetch. The conditions noted are these: herbicide alone; cited from earlier work.

The structures appear in SMILES notation.

`CCNc1nc(NC(C)C)nc(SC)n1` [ametryn, 2-(ethylamino)-4-isopropylamino-6-methylthio-s-triazine]: in data set [1] (ametryn 1.14 lb active ingredient/acre, compared to pretreatment), the “Percent Burndown” value turned out to be 30%. In addition, in the data set with humans and other mammals, the toxicity to humans result was “minimal human toxicity”. For the same compound, the effective against vetch in the data set with vetch is reported as 100%.
Take `C[n+]1ccc(-c2cc[n+](C)cc2)cc1` [paraquat, 1,1-dimethyl-4,4-bipyridinium]: the “Percent Burndown” value is on record as 30% in data set [1] (paraquat 0.35 lb active ingredient/acre) and 50% in data set [1] (paraquat 0.70 lb active ingredient/acre). The toxicity to humans result in the data set on humans and other mammals is “high toxicity to humans and other mammals”.
